Experimental data reported in paper PMC10674565 (Pharmaceuticals, 2023).

Assays:
ABCB1 [1] = target: ABCB1 (Homo sapiens, UniProt P08183); experiment: EMHPS transport through the Caco-2 cells monolayer (ABCB1 substrate test); format: in vitro ADME; parameters: Caco-2 cells were used to test the effect of EMHPS on the expression and activity of ABCB1; endogenous in cells; host or cells: Caco-2
Protocol: The medium was changed every 2–3 days.
The medium in chambers was removed and the cell monolayers were washed twice in warm (37 °C) transport medium (Hanks‚ balanced salt solution containing 10 mM HEPES and 1% dimethylsulfoxide (DMSO)). […] Chamber–recipient was filled with transport medium without EMHPS. At 60, 120, and 180 min, 100 μL samples were taken from the recipient chamber and the drug concentration was analyzed. EMHPS transport was assessed in the absorptive (apical to basolateral, a-b) and secretory (b-a) directions.
The apparent permeability (Papp) of EMHPS through Caco-2 monolayers was calculated using Equation (1). (1) Papp=dQ/dt×1/A×C0
A, membrane surface area (1.12 cm^2); C0, EMHPS concentration at t = 0 µM; and dQ/dt, amount of EMHPS transported within a given time period µM/s.
The ratio of Papp (b-a) and Papp (a-b), known as the efflux ratio (ER), was calculated in accordance with the following Equation (2):(2) ER=Papp b-a/Papp a-b
The ER was used as a marker for permeability through Caco-2 cell monolayers.
EMHPS concentrations in the transport medium (transport experiments with Caco-2 cells) were analyzed using HPLC-UV (HPLC chromatograph Stayer) with UV detection at a wavelength of 296 nm. The sample (50 µL) was diluted in 150 µL of the mobile phase, and 100 µL of the resulting solution was injected into the chromatograph. In the analysis, a Beckman Coulter 4.6 × 150 mm, 5 μm chromatographic column was used.
The separation temperature was 35 °C. The flow rate was 0.8 mL/min. Mobile phase composition: acetonitrile and water in a 20:80 v/v ratio with the addition of acetic acid to pH 3.25. The retention time of EMHPS under these conditions was 5.5 min.

[2] = Cytotoxicity (MTT) assay, Caco-2 cells; format: cell-based; settings: human, 1–500 µM, read-out: viability compared to the control
Protocol: Caco-2 and HEK93 cells were incubated in a 96-well microplate (10^4 cells per well) with different concentrations (1, 10, 50, 100, and 500 µM) of EMHPS for 24 h. At the end of incubation, 20 μL of 0.5% 3-(4,5-dimethylthiazol-2-yl)-2,5-diphenyltetrazolium bromide (MTT) was added to each well, followed by a 2 h incubation. The MTT solution was then aspirated and 200 μL of […] dimethyl sulfoxide solution (PanEko) was added. Absorption was recorded after 10 min at 530 nm with a Stat Fax 2100 plate reader (Awareness Technology, Palm City, FL, USA). The survival of cells in the presence of EMHPS was calculated according to the equation: (optical density (OD) of test wells − OD of medium)/(OD of control wells − OD of medium) × 100%, where OD is the optical density.

[3] = parameters: method as in earlier work; settings: blood plasma; cited from earlier work
ABCB1 [4] = experiment: Effect on expression of ABCB1 in Caco-2 cells (Western blot); format: cell-based, human; settings: 1, 10, and 100 µM, 24 h incubation
Protocol: (§1) To test the effect of EMHPS on the expression of ABCB1 and SLCO1B1, Caco-2 or HepG2 cells, respectively, were cultured on a 6-well plate. EMHPS was used at concentrations of 1, 10, and 100 µM, and the duration of exposure was 24 h. After the incubation, the cells were removed from the surface of the wells with a trypsin–EDTA solution (0.25% trypsin and 0.2% EDTA, Sigma-Aldrich, St. Louis, MO, USA).
(§2) The expression levels of ABCB1 and SLCO1B1 were analyzed via Western blot.
(§3) Cells were lysed with NP40 Cell Lysis Buffer Thermo (Thermo Fisher Scientific) with protease inhibitors (Sigma Aldrich, St. Louis, MO, USA) for 30 min at +4 °C with constant stirring at a rate of 10^7 cells per 100 µL of buffer. Protein concentrations were quantified with the Pierce Coomassie Plus Assay Kit (Thermo Fisher, Rockford, IL, USA). […]
The protein content was measured relative to the level of housekeeping protein GAPDH (primary antibodies: GAPDH Loading Control Monoclonal Antibody (GA1R) and […] (Invitrogen); secondary antibodies: secondary rabbit antibodies to primary GAPDH antibodies—Rabbit-anti-Mouse IgG (H + L) Secondary Antibody and HRP (Invitrogen). Chemiluminescence was recorded using ChemiDocXRS+ (Bio-Rad). The intensity of the obtained bands was analyzed densitometrically using ImageLab 6.0.0 software (Bio-Rad).

SLCO1B1 = experiment: Effect on expression of SLCO1B1 in HepG2 cells (Western blot); format: cell-based, human; settings: 1, 10, and 100 µM, 24 h incubation
Protocol: The HepG2 cell line was purchased from American Type Culture Collection (Institute of Cytology, Russian Academy of Sciences, Moscow, Russia). Cells were cultured in Dulbecco’s modified Eagle’s medium containing 15% fetal bovine serum, 2 mM l-glutamine, 100 units/mL penicillin G, and 100 μg/mL streptomycin in an atmosphere of 5% CO2 at 37 °C on a 24-well plate until a monolayer was formed. HepG2 cells were used to test the effect of EMHPS on the expression of SLCO1B1.
as §1, §2, §3

[5] = human, EMHPS 10 µM, Caco-2 monolayer, M ± SD
[6] = human, EMHPS 100 µM, Caco-2 monolayer, M ± SD
[7] = human, EMHPS 250 µM, Caco-2 monolayer, M ± SD

Sequence of ABCB1 (Homo sapiens, UniProt P08183) (P08183 whole entry): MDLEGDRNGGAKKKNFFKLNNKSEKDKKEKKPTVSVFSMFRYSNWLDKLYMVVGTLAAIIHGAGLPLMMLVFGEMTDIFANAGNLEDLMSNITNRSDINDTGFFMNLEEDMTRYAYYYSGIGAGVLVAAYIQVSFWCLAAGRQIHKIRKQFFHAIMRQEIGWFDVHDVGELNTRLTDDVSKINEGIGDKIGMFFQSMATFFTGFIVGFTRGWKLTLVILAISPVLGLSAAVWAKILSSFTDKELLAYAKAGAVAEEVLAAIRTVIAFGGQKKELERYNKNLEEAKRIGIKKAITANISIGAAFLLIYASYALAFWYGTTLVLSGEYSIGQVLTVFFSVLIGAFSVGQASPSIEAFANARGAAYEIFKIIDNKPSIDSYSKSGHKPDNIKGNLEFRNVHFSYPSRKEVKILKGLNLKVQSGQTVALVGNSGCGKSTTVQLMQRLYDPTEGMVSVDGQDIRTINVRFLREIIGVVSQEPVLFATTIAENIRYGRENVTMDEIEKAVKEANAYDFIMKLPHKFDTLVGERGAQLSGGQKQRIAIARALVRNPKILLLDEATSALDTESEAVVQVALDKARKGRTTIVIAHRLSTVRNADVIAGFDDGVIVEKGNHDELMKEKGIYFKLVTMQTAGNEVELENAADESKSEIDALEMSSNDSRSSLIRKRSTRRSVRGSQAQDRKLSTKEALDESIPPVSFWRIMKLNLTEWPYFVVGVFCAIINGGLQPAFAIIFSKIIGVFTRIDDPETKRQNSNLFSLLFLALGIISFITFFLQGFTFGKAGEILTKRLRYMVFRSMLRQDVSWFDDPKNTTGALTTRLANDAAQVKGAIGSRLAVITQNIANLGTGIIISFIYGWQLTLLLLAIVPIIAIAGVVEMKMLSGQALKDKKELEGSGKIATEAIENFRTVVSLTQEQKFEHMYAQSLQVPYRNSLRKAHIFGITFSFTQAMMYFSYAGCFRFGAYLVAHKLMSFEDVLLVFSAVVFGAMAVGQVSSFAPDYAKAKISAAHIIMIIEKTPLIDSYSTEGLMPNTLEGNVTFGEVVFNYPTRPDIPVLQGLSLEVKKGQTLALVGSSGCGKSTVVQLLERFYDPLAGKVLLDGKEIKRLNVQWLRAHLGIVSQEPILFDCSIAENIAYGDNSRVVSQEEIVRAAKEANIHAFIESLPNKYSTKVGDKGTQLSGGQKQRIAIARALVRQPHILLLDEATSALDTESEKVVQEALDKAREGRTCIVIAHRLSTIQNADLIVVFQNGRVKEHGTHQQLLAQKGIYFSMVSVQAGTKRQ

CCc1nc(C)ccc1O.O=C(O)CCC(=O)O [EMHPS, 2-Ethyl-6-methyl-3-hydroxypyridine succinate]
substrate of ABCB1 (ABCB1 [1]; Caco-2 monolayer, 10, 100, and 250 µM): not a substrate of ABCB1 | Papp A→B at 180 min, 10 µM (ABCB1 [1]; [5]): 7.66 ×10⁻⁶ cm/s | Papp B→A at 180 min, 10 µM (ABCB1 [1]; [5]): 7.56 ×10⁻⁶ cm/s | efflux ratio at 180 min, 10 µM (ABCB1 [1]; human, EMHPS 10 µM, Caco-2 monolayer, M ± SD, read-out: ER (Papp b-a/Papp a-b)): 0.99 ± 0.323 | Papp A→B at 180 min, 100 µM (ABCB1 [1]; [6]): 7.05 ×10⁻⁶ cm/s | Papp B→A at 180 min, 100 µM (ABCB1 [1]; [6]): 6.63 ×10⁻⁶ cm/s | efflux ratio at 180 min, 100 µM (ABCB1 [1]; human, EMHPS 100 µM, Caco-2 monolayer, M ± SD, read-out: ER (Papp b-a/Papp a-b)): 0.94 ± 0.039 | Papp A→B at 180 min, 250 µM (ABCB1 [1]; [7]): 22.3 ×10⁻⁶ cm/s | Papp B→A at 180 min, 250 µM (ABCB1 [1]; [7]): 16.5 ×10⁻⁶ cm/s | efflux ratio at 180 min, 250 µM (ABCB1 [1]; human, EMHPS 250 µM, Caco-2 monolayer, M ± SD, read-out: ER (Papp b-a/Papp a-b)): 0.75 ± 0.26 | efflux ratio at 180 min (ABCB1 [1]; human, all concentrations (10, 100, and 250 µM), Caco-2 monolayer, read-out: ER (Papp b-a/Papp a-b)): ~1 | viability at 24 h [2]: 85 to 105% | Cmax [3]: 390 nM | effect on expression of ABCB1 (ABCB1 [4]): did not significantly affect | effect on expression of SLCO1B1 (SLCO1B1): did not significantly affect
